Measurements published in US20180273538A1, “PYRROLO[2,3-d]PYRIMIDINE DERIVATIVES, A PROCESS FOR THEIR PREPARATION AND PHARMACEUTICAL COMPOSITIONS CONTAINING THEM” (LES LABORATOIRES SERVIER, priority 2015, published 2018).

How the values were obtained:
[1] = biological target: T1, His-TEV-DYRK1A Kinase domain (aa127-485) (Homo sapiens, UniProt Q13627); test: Kinase ADP assay (ADP Hunter Plus); type: biochemical
T1 construct: His-TEV-DYRK1A Kinase domain (aa127-485); His (N); TEV cleavage site (N)

phospho-Ser520-DYRK1A = biological target: T2, phospho-Ser520-DYRK1A (Homo sapiens, UniProt Q13627); test: Cellular DYRK1A autophosphorylation assay in U2-OS cells; type: cell-based; conditions: 5 hours exposure, read-out: IC50 (μM) P-Ser520-Dyrk1A-Cell assay
T2 construct: full-length, wild-type human DYRK1A (NM_001396) with an HA tag; expressed in transfected cells; host or cells: human U2-OS osteosarcoma cells, pcDNA3.1 plasmid

DYRK1A = biological target: T3, DYRK1A (Homo sapiens, UniProt Q13627); test: Kinase TR-FRET assay, DYRK1A; type: biochemical
T3 construct: full-length human kinases from Carna Biosciences; purchased Carna Biosciences 04-130

Q: Which IC50 [1] does the source give for `Cc1cc(-c2ccc3c(c2)OCO3)c2c(-c3ccnc(N)c3)c[nH]c2n1` [Example 222, 4-[4-(1,3-benzodioxol-5-yl)-6-methyl-1H-pyrrolo[2,3-b]pyridin-3-yl]pyridin-2-amine] here?
A: 0.008 µM

Q: What about the IC50 (phospho-Ser520-DYRK1A) of the same compound?
A: 0.0442 µM

Q: What does the source list for `C#Cc1cc(-c2ccc3c(c2)OCO3)c2c(-c3cc(N)nc(N)c3)c[nH]c2n1` [Example 221, 4-[4-(1,3-benzodioxol-5-yl)-6-ethynyl-1H-pyrrolo[2,3-b]pyridin-3-yl]pyridine-2,6-diamine]?
A: IC50 [1]: 0.016 µM; IC50 (phospho-Ser520-DYRK1A): 0.132 µM

Q: What does the source list for `Cc1nc(-c2ccc3c(c2)OCO3)c2c(-c3cc(N)nc(N)c3)c[nH]c2n1` [Example 192]?
A: IC50 [1]: 0.008 µM; IC50 (phospho-Ser520-DYRK1A): 0.048 µM

Q: What does the source list for `Cc1nc(-c2cc3ccccc3s2)c2c(-c3ccnc(N)c3)c[nH]c2n1` [Example 182]?
A: IC50 [1]: 0.013 µM; IC50 (phospho-Ser520-DYRK1A): 0.0142 µM

Q: Which IC50 (DYRK1A) does the source give for `Cc1nc(NCc2ccc3cc[nH]c3c2)c2c(-c3ccnc(N)c3)c[nH]c2n1` [Example 72, 5-(2-aminopyridin-4-yl)-N-(1H-indol-6-ylmethyl)-2-methyl-7H-pyrrolo[2,3-d]pyrimidin-4-amine] here?
A: 0.021 µM

Q: What about the IC50 [1] of the same compound?
A: 0.013 µM

Q: For `COc1cccc(C(F)(F)F)c1CNc1nc(C)nc2[nH]cc(-c3ccncc3)c12` [Example 145, N-[2-methoxy-6-(trifluoromethyl)benzyl]-2-methyl-5-(pyridin-4-yl)-7H-pyrrolo[2,3-d]pyrimidin-4-amine], which IC50 [1] is on record?
A: 0.042 µM

Q: What about the IC50 (phospho-Ser520-DYRK1A) of the same compound?
A: 0.471 µM

Q: Which results are given for `Cc1nc(C#CC2CC2)c2c(-c3ccnc(N)c3)c[nH]c2n1` [Example 198, 4-[4-(cyclopropylethynyl)-2-methyl-7H-pyrrolo[2,3-d]pyrimidin-5-yl]pyridin-2-amine]?
A: IC50 [1]: 0.017 µM; IC50 (phospho-Ser520-DYRK1A): 0.119 µM

Q: `Cc1nc(C#CC2CC2)c2c(-c3cc(N)nc(N)c3)c[nH]c2n1` [Example 196] was tested. Which IC50 [1] did it give?
A: 0.023 µM

Q: What about the IC50 (phospho-Ser520-DYRK1A) of the same compound?
A: 0.172 µM

Q: What does the source list for `Cc1nc(NCc2cccc3c2OCO3)c2c(-c3ccnc(N)c3)c[nH]c2n1` [Example 127, 5-(2-aminopyridin-4-yl)-N-(1,3-benzodioxol-4-ylmethyl)-2-methyl-7H-pyrrolo[2,3-d]pyrimidin-4-amine]?
A: IC50 [1]: 0.011 µM; IC50 (phospho-Ser520-DYRK1A): 0.0169 µM

Q: Which IC50 [1] does the source give for `Cc1nc(-c2cc(F)c3c(c2)OCO3)c2c(-c3ccnc(N)c3)c[nH]c2n1` [Example 191] here?
A: 0.006 µM

Q: What about the IC50 (phospho-Ser520-DYRK1A) of the same compound?
A: 0.0443 µM

Q: For `Cc1nc(NCc2ccc(F)cc2C(F)(F)F)c2c(-c3ccnc(N)c3)c[nH]c2n1` [Example 75, 5-(2-ammopyridin-4-yl)-N-[4-fluoro-2-(trifluoromethyl)benzyl]-2-methyl-7H-pyrrolo[2,3-d]pyrimidin-4-amine], which IC50 (DYRK1A) is on record?
A: 0.0143 µM

Q: What about the IC50 [1] of the same compound?
A: 0.037 µM

Q: How did the IC50 [1] turn out when `Cc1nc(-c2ccc3c(c2)OC(F)(F)O3)c2c(-c3ccnc(N)c3)c[nH]c2n1` [Example 164, 4-[4-(2,2-difluoro-1,3-benzodioxol-5-yl)-2-methyl-7H-pyrrolo[2,3-d]pyrimidin-5-yl]pyridin-2-amine] was run?
A: 0.015 µM

Q: And the IC50 (phospho-Ser520-DYRK1A)?
A: 0.0883 µM

Q: `Nc1cc(-c2c[nH]c3nc(C#CC4CC4)nc(NCc4c(F)cccc4F)c23)ccn1` [Example 152, 5-(2-aminopyridin-4-yl)-2-(cyclopropylethynyl)-N-(2,6-difluorobenzyl)-7H-pyrrolo[2,3-d]pyrimidin-4-amine] was tested. Which IC50 [1] did it give?
A: 0.012 µM

Q: What about the IC50 (phospho-Ser520-DYRK1A) of the same compound?
A: 0.0101 µM

Q: With `Nc1cc(-c2c[nH]c3nc(C#CC4CC4)cc(-c4ccc5c(c4)OCO5)c23)cc(N)n1` [Example 218, 4-[4-(1,3-benzodioxol-5-yl)-6-(cyclopropylethynyl)-1H-pyrrolo[2,3-b]pyridin-3-yl]pyridine-2,6-diamine] as the compound, how does the IC50 [1] read?
A: 0.015 µM

Q: What about the IC50 (phospho-Ser520-DYRK1A) of the same compound?
A: 0.0289 µM

Q: What does the source list for `COc1cc(F)ccc1CNc1nc(C)nc2[nH]cc(-c3ccnc(N)c3)c12` [Example 84, 5-(2-aminopyridin-4-yl)-N-(4-fluoro-2-methoxybenzyl)-2-methyl-7H-pyrrolo[2,3-d]pyrimidin-4-amine]?
A: IC50 [1]: 0.006 µM; IC50 (phospho-Ser520-DYRK1A): 0.0097 µM

Q: Which results are given for `Cc1nc(NCc2cccc3c2OCO3)c2c(-c3cc(N)nc(N)c3)c[nH]c2n1` [Example 128, 4-{4-[(1,3-benzodioxol-4-ylmethyl)amino]-2-methyl-7H-pyrrolo[2,3-d]pyrimidin-5-yl}pyridine-2,6-diamine]?
A: IC50 [1]: 0.009 µM; IC50 (phospho-Ser520-DYRK1A): 0.0093 µM

Q: Which results are given for `Cc1nc(NC(C)c2ccccn2)c2c(-c3ccnc(N)c3)c[nH]c2n1` (stereo not drawn) [Example 66, 5-(2-aminopyridin-4-yl)-2-methyl-N-[1-(pyridin-2-yl)ethyl]-7H-pyrrolo[2,3-d]pyrimidin-4-amine]?
A: IC50 (DYRK1A): 0.0107 µM; IC50 [1]: 0.045 µM

Q: With `Cc1nc(-c2ccc3c(c2)OCO3)c2c(-c3ccnc(N)n3)c[nH]c2n1` [Example 209, 4-[4-(1,3-benzodioxol-5-yl)-2-methyl-7H-pyrrolo[2,3-d]pyrimidin-5-yl]pyrimidin-2-amine] as the compound, how does the IC50 [1] read?
A: 0.032 µM

Q: And the IC50 (phospho-Ser520-DYRK1A)?
A: 0.157 µM

Q: `Cc1nc(NCc2cccc3c2OCO3)c2c(-c3ccnc(N)n3)c[nH]c2n1` [Example 208, 5-(2-aminopyrimidin-4-yl)-N-(1,3-benzodioxol-4-ylmethyl)-2-methyl-7H-pyrrolo[2,3-d]pyrimidin-4-amine] was tested. Which IC50 [1] did it give?
A: 0.01 µM

Q: And the IC50 (phospho-Ser520-DYRK1A)?
A: 0.0041 µM

Q: Which IC50 (DYRK1A) does the source give for `Cc1nc(NCc2cc(F)cc(F)c2F)c2c(-c3ccnc(N)c3)c[nH]c2n1` [Example 73, 5-(2-aminopyridin-4-yl)-2-methyl-N-(2,3,5-trifluorobenzyl)-7H-pyrrolo[2,3-d]pyrimidin-4-amine] here?
A: 0.0059 µM

Q: What about the IC50 [1] of the same compound?
A: 0.038 µM

Q: Which results are given for `Nc1cc(-c2c[nH]c3nc(C#CC4CC4)nc(-c4ccc5c(c4)OCO5)c23)ccn1` [Example 153, 4-[4-(1,3-benzodioxol-5-yl)-2-(cyclopropylethynyl)-7H-pyrrolo[2,3-d]pyrimidin-5-yl]pyridin-2-amine]?
A: IC50 [1]: 0.011 µM; IC50 (phospho-Ser520-DYRK1A): 0.0146 µM

Q: With `Nc1cc(-c2c[nH]c3nc(C#CC4CC4)cc(-c4ccc5c(c4)OCCO5)c23)ccn1` [Example 215, 4-[6-(cyclopropylethynyl)-4-(2,3-dihydro-1,4-benzodioxin-6-yl)-1H-pyrrolo[2,3-b]pyridin-3-yl]pyridin-2-amine] as the compound, how does the IC50 [1] read?
A: 0.019 µM

Q: And the IC50 (phospho-Ser520-DYRK1A)?
A: 0.103 µM

Q: How did the IC50 [1] turn out when `Cc1ccc2sc(-c3nc(C)nc4[nH]cc(-c5ccnc(N)c5)c34)cc2c1` [Example 184] was run?
A: 0.012 µM

Q: And the IC50 (phospho-Ser520-DYRK1A)?
A: 0.0319 µM

Q: Which results are given for `Cc1nc(/C=C/c2ccccc2)c2c(-c3ccnc(N)c3)c[nH]c2n1` [Example 159]?
A: IC50 [1]: 0.012 µM; IC50 (phospho-Ser520-DYRK1A): 0.0187 µM

Q: Which IC50 [1] does the source give for `Cc1nc(C#Cc2ccccc2F)c2c(-c3ccnc(N)c3)c[nH]c2n1` [Example 194] here?
A: 0.007 µM

Q: And the IC50 (phospho-Ser520-DYRK1A)?
A: 0.017 µM

Q: Which results are given for `Cc1nc(-c2ccc3c(c2)CCCC3)c2c(-c3ccnc(N)c3)c[nH]c2n1` [Example 195]?
A: IC50 [1]: 0.008 µM; IC50 (phospho-Ser520-DYRK1A): 0.0071 µM

Q: What does the source list for `C#Cc1cc(-c2ccc3c(c2)OCO3)c2c(-c3ccnc(N)c3)c[nH]c2n1` [Example 220, 4-[4-(1,3-benzodioxol-5-yl)-6-ethynyl-1H-pyrrolo[2,3-b]pyridin-3-yl]pyridin-2-amine]?
A: IC50 [1]: 0.034 µM; IC50 (phospho-Ser520-DYRK1A): 0.193 µM

Q: With `Cc1nc(Nc2ccc3c(c2)OCO3)c2c(-c3ccnc(N)c3)c[nH]c2n1` [Example 132, 5-(2-aminopyridin-4-yl)-N-(1,3-benzodioxol-5-yl)-2-methyl-7H-pyrrolo[2,3-d]pyrimidin-4-amine] as the compound, how does the IC50 (DYRK1A) read?
A: 0.0338 µM

Q: And the IC50 [1]?
A: 0.122 µM

Q: `N#Cc1cc(-c2ccc3c(c2)OCO3)c2c(-c3cc(N)nc(N)c3)c[nH]c2n1` [Example 224, 4-(1,3-benzodioxol-5-yl)-3-(2,6-diaminopyridin-4-yl)-1H-pyrrolo[2,3-b]pyridine-6-carbonitrile] was tested. Which IC50 [1] did it give?
A: 0.03 µM

Q: And the IC50 (phospho-Ser520-DYRK1A)?
A: 0.225 µM

Q: How did the IC50 (DYRK1A) turn out when `N#Cc1nc(-c2ccc3c(c2)OCO3)c2c(-c3cc(N)nc(N)c3)c[nH]c2n1` [Example 158, 4-(1,3-benzodioxol-5-yl)-5-(2,6-diaminopyridin-4-yl)-7H-pyrrolo[2,3-d]pyrimidine-2-carbonitrile] was run?
A: 0.0655 µM

Q: And the IC50 [1]?
A: 0.15 µM

Q: With `Cc1nc(-c2cc3ccccc3o2)c2c(-c3ccnc(N)c3)c[nH]c2n1` [Example 183] as the compound, how does the IC50 [1] read?
A: 0.006 µM

Q: And the IC50 (phospho-Ser520-DYRK1A)?
A: 0.029 µM

Q: For `Cc1nc(-c2cccc(OC(F)(F)F)c2)c2c(-c3ccnc(N)c3)c[nH]c2n1` [Example 181], which IC50 [1] is on record?
A: 0.019 µM

Q: And the IC50 (phospho-Ser520-DYRK1A)?
A: 0.15 µM

Q: For `Nc1cc(-c2c[nH]c3nc(C#CC4CC4)cc(-c4ccc5c(c4)OCO5)c23)ccn1` [Example 219, 4-[4-(1,3-benzodioxol-5-yl)-6-(cyclopropylethynyl)-1H-pyrrolo[2,3-b]pyridin-3-yl]pyridin-2-amine], which IC50 [1] is on record?
A: 0.019 µM

Q: What about the IC50 (phospho-Ser520-DYRK1A) of the same compound?
A: 0.0325 µM

Q: How did the IC50 [1] turn out when `Nc1cc(-c2c[nH]c3nc(C#CC4CC4)nc(-c4ccc5c(c4)OCO5)c23)cc(N)n1` [Example 154, 4-[4-(1,3-benzodioxol-5-yl)-2-(cyclopropylethynyl)-7H-pyrrolo[2,3-d]pyrimidin-5-yl]pyridine-2,6-diamine] was run?
A: 0.013 µM

Q: What about the IC50 (phospho-Ser520-DYRK1A) of the same compound?
A: 0.053 µM

Q: With `Cc1cc(-c2cncc(F)c2)c2c(-c3ccnc(N)c3)c[nH]c2n1` [Example 214, 4-[4-(5-fluoropyridin-3-yl)-6-methyl-1H-pyrrolo[2,3-b]pyridin-3-yl]pyridin-2-amine] as the compound, how does the IC50 [1] read?
A: 0.242 µM

Q: For `COC1CCN(c2nc(C)nc3[nH]cc(-c4cc(N)nc(N)c4)c23)CC1` [Example 139, 4-[4-(4-methoxypiperidin-1-yl)-2-methyl-7H-pyrrolo[2,3-d]pyrimidin-5-yl]pyridine-2,6-diamine], which IC50 [1] is on record?
A: 0.883 µM

Q: Which IC50 [1] does the source give for `Cc1nc(-c2ccc3c(c2)OC(F)(F)O3)c2c(-c3ccnc(N)n3)c[nH]c2n1` [Example 210, 4-[4-(2,2-difluoro-1,3-benzodioxol-5-yl)-2-methyl-7H-pyrrolo[2,3-d]pyrimidin-5-yl]pyrimidin-2-amine] here?
A: 0.05 µM

Q: Which IC50 [1] does the source give for `Cc1nc(N(C)Cc2c(F)cccc2F)c2c(-c3ccnc(N)c3)c[nH]c2n1` [Example 120, 5-(2-aminopyridin-4-yl)-N-(2,6-diflurobenzyl)-N,2-dimethyl-7H-pyrrolo[2,3-d]pyrimidin-4-amine] here?
A: 0.115 µM
